{"source": "patent US20190212344A1", "about": "“BIOMARKERS FOR USE IN DETERMINING RESPONSE TO TREATMENT OF NEURODEGENERATION DISEASE” (The Board of Trustees of the Leland Stanford Junior …, priority 2016, published 2019)", "system": "R6/2 mice", "assay": "Survival of R6/2 and WT mice during P110 treatment", "type": "in vivo, mouse", "conditions": "10 P110-treated WT mice, intermittent treatment over 8 weeks", "protocol": "All the experiments were in accordance with protocols approved by the Institutional Animal Care and Use Committee of Stanford University and were performed based on the National Institutes of Health Guide for the Care and Use of Laboratory Animals. Hemizygous R6/2 HD mice and their wild-type littermates (WT) were purchased from Jackson Laboratories and shipped to us at 5 weeks of age. The animals used in the P110 treatment study were implanted with a 28-day osmotic pump (Alzet, Cupertino Calif.) containing TAT47-57 carrier control peptide or P110-TAT47-57 (P110 peptide), which delivered to the mice at a rate of 3 mg/Kg/day, as described before. The first pump was implanted at 5 weeks of age and replaced once, after 4 weeks. For the intermittent treatment study, TAT or P110 were delivered as above, using a 1-week pump. After 3 weeks with no treatment, a new pump was implanted for another week of treatment, and mice were sacrificed three weeks later, at the age of 13 weeks.\nThe overall survival during the study period was recorded and the remaining mice were sacrificed when they reached 13 weeks. […]\nThe results are presented as mean±SE. Statistical analysis was assessed by unpaired Student's t test and 1-way ANOVA using GraphPad Prism (GraphPad Software, Inc, La Jolla, Calif.). […]", "note": "Residues, ends and D or L forms follow the SMILES beside them.", "data": [{"compound": "CC(C)C[C@H](NC(=O)[C@H](CC(=O)O)NC(=O)CNC(=O)CNC(=O)[C@H](CCCNC(=N)N)NC(=O)[C@H](CCCNC(=N)N)NC(=O)[C@H](CCCNC(=N)N)NC(=O)[C@H](CCC(N)=O)NC(=O)[C@H](CCCNC(=N)N)NC(=O)[C@H](CCCNC(=N)N)NC(=O)[C@H](CCCCN)NC(=O)[C@H](CCCCN)NC(=O)[C@H](CCCNC(=N)N)NC(=O)CNC(=O)[C@@H](N)Cc1ccc(O)cc1)C(=O)N[C@@H](CC(C)C)C(=O)N1CCC[C@H]1C(=O)N[C@@H](CCCNC(=N)N)C(=O)NCC(=O)N[C@@H](CO)C(=O)O", "note": "[P110] (H-YGRKKRRQRRRGGDLLPRGS-OH)", "values": [{"measurement": "death in WT mice", "value": "no death"}]}]}
